≈ marks a conversion by molar mass, not a printed value. Entries after “also recorded” stand apart in the source; their conditions may differ. Read-outs that look alike come from different tables or passages of the source. Values belong to the compound of their own block, whether it stands above or below them.
Columns and labels:
[1] = test system: Listeria monocytogenes in J774 cells; assay: Intracellular growth of Listeria monocytogenes in J774 cells; type: cell-based
Protocol: J774 cells grown in spinner culture were centrifuged for 5 min. at 1000 RPM. The cells were resuspended in fresh DME+5% HICS without antibiotics at a concentration of 2×10^5. 5 ml of this cell suspension was plated into each 60 mm Petri dish containing multiple 12×1 mm round coverslips (Fisher Scientific Co.) the evening before use to allow the cells to form monolayers on the coverslips. The cells were incubated overnight at 37° C.
L. monocytogenes was incubated overnight in BHI broth to a density of approximately 10^9 /ml in a shaker at 37° C. 1 ml of the bacterial suspension was sedimented in a microfuge tube (USA/Scientific Plastics, Ocala, Fla.) for 1 min at 8000 RPM. The supernatant was removed and the pellet was washed once in 1 ml of PBS at pH 7.4. The bacteria were then resuspended in 1 ml fresh DME+5% HICS, diluted in DME+5% HICS to a concentration of 2×10^5 bacteria per ml, and 5 ml of this suspension (10^6 bacteria total) was placed in each 60 mm dish containing a monolayer of J774 cells (infection ratio 1:1). The dishes were incubated at 35° C. for 60 minutes. The coverslip was then transferred to a new 60 mm petri dish containing 10 ml of pre warmed DME+5% HICS and 5 μg/ml of gentamicin. The cells were incubated in the gentamicin containing medium for 1 hr. at 35° C. to kill extracellular bacteria, as described by Portnoy et al. (9), at which time additional drugs were added as indicated below. One 60 mm dish received no addition (control). Other 60 mm dishes received Gemfibrozil (GFZ) (0.2 mM), and/or Norfloxacin (NFX) at 2, 4 or 8 μg per ml, as indicated. Drugs were added either separately or in combination to make four independent sets: No addition, GFZ alone, NFX alone, or GFZ+NFX. The cultures were further incubated at 35° C. Three coverslips containing the Listeria-infected J774 cells were harvested from each culture dish at 2 hours after infection and at 2 hour intervals thereafter. The number of bacteria in the J774 cells on each cover slip was determined by depositing each coverslip into 5 ml of sterile distilled water in a 15 ml Falcon tube. The tubes were vortexed for 15 sec. to lyse the infected cells and 10 or 50 μL of each Listeria-containing solution was plated onto 10 cm dishes containing LB agar. The LB agar plates were incubated at 37° C. overnight, the bacterial colonies were counted, and the number of bacteria per cover slip was calculated from the number of colonies on the agar. Every data point represents the average of the number of bacterial colonies recovered from three coverslips.

[2] = test system: organic anion transporters of J774 cells; type: cell-based, mouse
[3] = test system: organic anion transporters of J774 cells; assay: Lucifer Yellow secretion (efflux) from J774 cells; type: cell-based, mouse
Protocol: Cells were incubated in D10 containing 0.5 mg/ml Lucifer Yellow and 5 mM ATP with or without 10 mM penicillin G. The cells were then washed and incubated in fresh medium at 37° C. At intervals, the cells were viewed by fluorescence microscopy.

[4] = test system: organic anion transporters of J774 cells; type: cell-based, mouse; settings: for intracellular accumulation of radiolabel from [3H] norfloxacin: J774 cells incubated with [3H] norfloxacin and the inhibitor
Protocol: [^3 H]-Norfloxacin Retention in J774 Cells: J774 cells were prepared as above. The cells were incubated in PBS with 1.5 μCi/ml [^3 H] norfloxacin in the presence or absence of 10 mM probenecid for various lengths of time, washed and lysed. Cell-associated radioactivity and protein were quantitated as above.

[5] = test system: organic anion transporters of J774 cells; assay: Intracellular Lucifer Yellow accumulation during ATP permeabilization of J774 cells; type: cell-based, mouse; settings: for effect on intracellular accumulation of Lucifer Yellow during ATP permeabilization: added together with 0.5 mg/ml Lucifer Yellow and 5 mM ATP
Protocol: The cells were incubated in phosphate buffered saline with divalent cations (PBS) containing 0.5 mg/ml Lucifer Yellow, 5 mM ATP and other compounds, at 37° C. as indicated in the text. The wells were washed with cold phosphate buffered saline without divalent cations (PD) 3 times, and plates were immersed successively in three beakers containing 1,000 ml cold PD. The first beaker also contained 0.1% bovine serum albumin. The cells then were lysed in 0.05% Triton X-100, and fluorescence was measured in a fluorescence spectrophotometer using an excitation wavelength of 430 nm and an emission wavelength 540 nm. Total cell protein was measured by a modification of the Lowery method. (6) Results were expressed as ng Lucifer Yellow/mg protein.
An assay to identify competitive inhibitors of the organic anion transporters that mediate the secretion of Lucifer Yellow was developed. It was reasoned that any substrate of the organic anion transporter small enough to enter the cells through ATP-induced pores, when added together with Lucifer Yellow during ATP permeabilization, would compete with Lucifer Yellow for efflux and cause higher intracellular accumulation of Lucifer Yellow. This assay was used to determine whether various substrates for other organic anion transporters competed with Lucifer Yellow for secretion by J774 cells.

[6] = test system: organic anion transporters of J774 cells
[7] = test system: organic anion transporters of J774 cells; settings: cited from earlier work; for effect on intracellular sequestration and secretion of Lucifer Yellow: macrophages and J774 cells
Toxicity to J774 cells = type: cell-based; settings: mouse, read-out: concentrations toxic to the cells
L. monocytogenes [8] = assay: Extracellular growth assay: minimum bacteriocidal concentration (MBC); type: cell-based; settings: Listeria monocytogenes; brain-heart infusion broth; read-out: NFX concentration bacteriocidal for LM (MBC)
Protocol: 10 μl of the contents of each sample from the MIC assay described above was plated on 10 cm plates containing 20 ml. LB, agar, and the plates were incubated overnight at 25° C., 30° C. and 35° C. The number of colonies were counted.

L. monocytogenes [9] = assay: Extracellular growth assay: minimum inhibitory concentration (MIC); type: cell-based; settings: Listeria monocytogenes; brain-heart infusion broth; read-out: NFX concentration that blocked growth of LM (MIC)
Protocol: L. monocytogenes were inoculated into 1 ml of BHI broth and grown overnight in BHI broth to a density of approximately 10^9 bacteria per ml, diluted to a concentration of 2×10^3 bacteria per ml in Brain Heart Infusion Broth, and 0.5 ml aliquots of this suspension were placed in separate tubes. Norfloxacin (NFX) at the indicated concentrations in 0.5 ml BHI broth was added to the tubes containing L. monocytogenes, and the bacteria were incubated overnight at 25° C., 30° C. and 35° C. The MIC of NFX for L. monocytogenes was determined by visual inspection (tubes without antibiotic, in which the bacteria grew contained a cloudy suspension).

J774 cells = assay: Uptake of [14C] penicillin G by adherent J774 cells from extracellular medium; type: cell-based, mouse; settings: even in the presence of 10 mM probenecid
Protocol: It was then questioned whether penicillin G was taken up by J774 cells from the extracellular medium, and whether this uptake was affected by organic anion transporters. In these experiments, adherent J774 cells were incubated in medium containing [^14 C] penicillin G, the cells were washed, and intracellular radiolabel was measured.

SMILES: Cc1ccc(C)c(OCCCC(C)(C)C(=O)O)c1 [GFZ, 5-(2,5-dimethylphenoxy)-2,2-dimethylpentanoic acid]
intracellular growth of LM in J774 cells ([1]; 0.2 mM GFZ alone): has no effect on the rate or extent of growth; also recorded: does not inhibit growth | enhancement of intracellular accumulation of NFX ([2]; 0.2 mM GFZ): four-fold | EC50 ([2]; J774 cells, read-out: ED50 for enhancing intracellular accumulation of [3H]NFX): 15 µM | ED50 lower than the ED50 of PB or sulfinpyrazone ([2]; [3H]NFX accumulation by J774 cells): 30 fold | concentration inhibiting Lucifer Yellow secretion relative to PB [3]: ten-fold lower concentration than PB

SMILES: CCCN(CCC)S(=O)(=O)c1ccc(C(=O)O)cc1 [probenecid, Probenecid]
intracellular accumulation of radiolabel from [3H] norfloxacin [4]: marked increase | time at which intracellular norfloxacin concentration reached plateau ([4]; in the presence of 10 mM probenecid): 30 min | enhancement of intracellular accumulation of norfloxacin ([4]; j774 cells, 10000 µM): 3-4 fold | increase of intracellular retention of Lucifer Yellow ([5]; 5-10 mM probenecid in medium with Lucifer Yellow and ATP): 2.5 fold | reversibility of the effect on norfloxacin retention ([2]; 10 mM probenecid 30 minutes, then washed): reversible | EC50 ([2]; 30 minutes, J774 cells, read-out: ED50 for enhancing intracellular retention of norfloxacin): 500 µM | [3H] norfloxacin remaining in cells after probenecid removal relative to cells never incubated in probenecid ([2]; steady state after removal of 10 mM probenecid): twice | concentrations that block secretion of Lucifer Yellow, penicillin and Norfloxacin [3]: 2 to 5 mM | intracellular penicillin secreted from the cells ([6]; after 30 minutes, in the presence of 10 mM probenecid): 37% | effect on intracellular sequestration and secretion of Lucifer Yellow [7]: inhibit both intracellular sequestration and secretion of Lucifer Yellow

SMILES: O=C1C(CC[S+]([O-])c2ccccc2)C(=O)N(c2ccccc2)N1c1ccccc1 (centres unmarked) [sulfinpyrazone]
intracellular accumulation of radiolabel from [3H] norfloxacin [4]: marked increase | ED50 for enhancing intracellular retention of norfloxacin (in words) ([2]; 30 minutes, J774 cells): essentially the same as that for probenecid | MCC (Toxicity to J774 cells): > 2.5 mM | concentrations that block secretion of Lucifer Yellow, penicillin and Norfloxacin [3]: 2 to 5 mM | effect on intracellular sequestration and secretion of Lucifer Yellow [7]: inhibit both intracellular sequestration and secretion of Lucifer Yellow

SMILES: O=C(O)[C@H](O)[C@@H](O)[C@H](O)[C@H](O)CO [Gluconic acid]
effect on intracellular accumulation of Lucifer Yellow during ATP permeabilization [5]: had no effect | effect on intracellular norfloxacin concentration ([2]; 10 mM gluconic acid compared with norfloxacin only in PBS): did not affect

time at which intracellular norfloxacin concentration reached plateau [4]: ≤ 10 min | MIC (L. monocytogenes [9]): 4 µg/mL (≈ 12.5 µM)
SMILES: CCn1cc(C(=O)O)c(=O)c2cc(F)c(N3CCNCC3)cc21 [NFX, Norfloxacin]
intracellular growth of LM in J774 cells ([1]; 2 μg/ml NFX alone): little inhibitory effect; also recorded: slowed intracellular growth | intracellular growth of LM in J774 cells ([1]; 4 μg/ml NFX alone): marked inhibition of intracellular growth; also recorded: bacteriostatic | intracellular growth of LM in J774 cells ([1]; 8 μg/ml NFX alone): bacteriostatic effect | MBC (L. monocytogenes [8]): 8 µg/mL (≈ 25.1 µM)

SMILES: CC1(C)S[C@@H]2[C@H](NC(=O)Cc3ccccc3)C(=O)N2[C@H]1C(=O)O [penicillin G]
effect on intracellular accumulation of Lucifer Yellow during ATP permeabilization [5]: increase Lucifer Yellow retention in a dose-dependent manner | accumulation of [3H] norfloxacin in preloaded cells ([2]; preloaded with 10 mM by ATP-permeabilization, compared with 10 mM gluconic acid preload): significant increase | intracellular radiolabel after incubation with [14C] penicillin G without ATP permeabilization (J774 cells): could not be readily detected | rate of Lucifer Yellow efflux after co-loading by ATP permeabilization ([3]; 10 mM penicillin G, fluorescence microscopy): reduced the rate of Lucifer Yellow afflux | penicillin originally inside the cells secreted into the medium [6]: about 80%

SMILES: NNC(=O)NN1C(=O)c2cc(S(=O)(=O)O)cc3c(N)c(S(=O)(=O)O)cc(c23)C1=O [Lucifer Yellow]
dye secreted by the cells into the medium ([7]; within 30 minutes after ATP-mediated permeabilization): 80-85%

SMILES: NC(=O)c1cnccn1 [pyrazinamide]
effect on intracellular accumulation of Lucifer Yellow during ATP permeabilization [5]: had no effect

Reference: US5422372A, “Method of increasing intracellular accumulation of hydrophilic anionic agents using gemfibrizol” (priority 1993, dated 1995)
